Assay results published in patent publication US11921116B2, “Enigma and CDH18 as companion diagnostics for CDK4 inhibitors” (Memorial Sloan Kettering Cancer Center, priority 2016, dated 2024).
“Also recorded” adds a separate entry of the source.

Columns and labels:
Assay type in all cases: cell-based
[1] = system: MDM2 turnover in LS8107 cells; experiment: Turnover (degradation) of MDM2 in LS8107 cells after CDK4 inhibition; details: LS8107 cells with knockdown of Enigma, addition of PD0332991
Procedure: To determine if Enigma affects MDM2 protein levels post-translationally, the turnover of MDM2 was analyzed. […] To determine whether HAUSP and Enigma are the important regulators of MDM2 protein levels in response to treatment with a CDK4 inhibitor, concomitant knockdown of HAUSP and Enigma was performed.

[2] = system: non-responder cell line LS8107; experiment: Senescence of LS8107 cells after CDK4 inhibition (SA-β-gal positive cells, ATRX foci)
[3] = system: MDM2 protein levels in LS8107 cells; experiment: MDM2 protein levels in LS8107 cells after CDK4 inhibition
Description: The short hairpins used are as follows: TRCN0000161061: […] (SEQ ID NO: 4); and TRCN0000166638 (“EN638”): […] (SEQ ID NO: 5).

[4] = LS8107 cells with Enigma knocked down (shRNA), treated with PD0332991
[5] = non-responder LS8107 cells, PD0332991 alone (no knockdown)

CC(=O)c1c(C)c2cnc(Nc3ccc(N4CCNCC4)cn3)nc2n(C2CCCC2)c1=O [PD0332991]
turnover of MDM2 [1]: increased the turnover of MDM2
senescence [2, 4]: the cells entered senescence
senescence as determined by the number of SA-β-gal positive cells [2, 5]: do not undergo senescence; also recorded: insufficient to induce senescence
MDM2 protein levels [3, 4]: reduction in MDM2 protein levels
MDM2 protein levels [3, 5]: do not reduce their MDM2 protein levels
